# Experimental data published in patent publication US8962523B2, “Herbicide/safener combination” (Bayer Cropscience AG, priority 2008, dated 2015).
# Columns and labels:
# Format in all cases: in vivo
# Wheat (Triso) [1] = test: Post-emergence herbicidal effect and safener effect, wheat; settings: herbicide 50 g a.i./ha, no safener
# Description: (§1) Seeds or rhizome pieces of mono- and dicotyledonous harmful plants and of crop plants are planted in peat pots in sandy loam, covered with earth and grown in a greenhouse under good growth conditions. Alternatively to this, harmful plants occurring in the paddy rice cultivation are cultivated in pots in which water comes to 2 cm above the soil surface. 10 to 20 days after sowing, the test plants are treated in the one to three-leaf stage. The herbicide/safener active ingredient combinations according to the invention, formulated as water-soluble powders or suspensions, and, in parallel experiments, the correspondingly formulated individual active ingredients are sprayed onto the green plant parts in various dosages using an application rate of 300 l of water/ha (converted) and, after the test plants have remained in the greenhouse under optimum growth conditions for 2-3 weeks, the effect of the preparations is scored visually in comparison with untreated controls. In the case of rice or in the case of harmful plants which occur in the rice cultivation, the active ingredients are also placed directly into the irrigation water (application analogous to the so-called granules application) or sprayed onto plants and into the irrigation water.
# Barley (Adonis) = test: Post-emergence herbicidal effect and safener effect, barley; settings: no safener
# Description: as §1
# Corn (Aventura) [2] = test: Post-emergence herbicidal effect and safener effect, corn; settings: herbicide 100 g a.i./ha, no safener
# Description: as §1
# Wheat (Triso) [3] = test: Pre-emergence herbicidal effect and safener effect, wheat; settings: herbicide 100 g a.i./ha, no safener, visual scoring vs untreated controls
# Source text: (§2) Seeds or rhizome pieces of mono- and dicotyledonous weed plants and crop plants were planted in peat pots in sandy loam and covered with earth. The herbicide/safener active ingredient combinations according to the invention, formulated as water-soluble powders or suspensions, and, in parallel experiments, the correspondingly formulated individual active ingredients were then applied to the surface of the covering earth at an application rate of 600 to 800 l of water/ha (converted) in a variety of dosages.
# (§3) After the treatment, the pots were placed in the greenhouse and kept under good growth conditions for the weeds and the crop plants. Visual scoring of the plant damage or emergence damage was carried out after the test plants had emerged after a test period of 2 to 4 weeks, in comparison with untreated controls.
# Corn (Aventura) [4] = test: Pre-emergence herbicidal effect and safener effect, corn; settings: no safener
# Source text: as §2, §3
compound,measurement,setting,value
"COC(=O)c1nc(-c2ccc(Cl)nc2)cc(N)c1Cl [I-128, Methyl 4-amino-3-chloro-6-(6-chloro-3-pyridinyl)pyridine-2-carboxylate]",% Effect (without safener),Wheat (Triso) [1],40%
same,% Effect (without safener),Barley (Adonis); herbicide 25 g a.i./ha,30%
same,% Effect (without safener),Barley (Adonis); herbicide 50 g a.i./ha,20%
same,% Effect (without safener),Corn (Aventura) [2],40%
same,% Effect (without safener),Wheat (Triso) [3],50%
same,% Effect (without safener),Corn (Aventura) [4]; herbicide 25 g a.i./ha,50%
same,% Effect (without safener),Corn (Aventura) [4]; herbicide 50 g a.i./ha,65%
